Laboratory results published in ChEMBL document CHEMBL3507680, “University of Dundee, Gates Library screen for HepG2 cell viability”.

Assay: Human HepG2 cell viability assay in 384 well format
Assay type: toxicity, cell-based
Set-up: dose 125 nL, time 70.5 hour; concentration not given beside the values
Conditions: HepG2 cells, read-out: Inhibition

| Structure (SMILES) | cytotoxicity at 70.5 h |
| --- | --- |
| CN(C)C(C(=O)Nc1nccs1)c1c(F)cccc1Cl (stereo not drawn) | -0.246% |
| O=C(c1cc(C2CC2)[nH]n1)N1CCN(Cc2ccccc2)CC1 | -4.29% |
| Cc1cc(NC(=O)CN(C)CC2CCCN2c2cccnn2)n(C)n1 (stereo not drawn) | -5.26% |
| CC(C)Cc1cc(C(=O)NC(C)(C)c2nnc(N)s2)n(C)n1 | -6.76% |
| CC1(C)CN(C(=O)c2ccccc2-n2cncn2)CC1(C)O (stereo not drawn) | 18.2% |
| CC(=O)N1CC[C@H]2C(=O)N(c3ccsc3)CCO[C@H]2C1 | -2.46% |
| COCCCC(=O)NS(=O)(=O)c1ccc2c(c1)OCCCO2 | -8.6% |
| COC(=O)c1ccc(C(=O)NCC(O)c2cccn2C)cc1 (stereo not drawn) | 48.7% |
| Cc1nc[nH]c1CN1CCN(C(=O)C2CC2)[C@H]2CS(=O)(=O)C[C@H]21 | -12.6% |
| Cc1ccnc(N2CCC(NCCOc3ccccc3)CC2)n1 | -4.28% |
| Cc1nc2c(c(=O)[nH]1)CN(Cc1ccc3c(c1)CCCN3C)CC2 | 1.02% |
| Cc1cnc(N2C[C@@H]3CCN(CC4CC4)C(=O)[C@H]3C2)nc1 | -4.98% |
| COCCCNC(=O)C(C)n1nc(-c2ccco2)cc(N)c1=O (stereo not drawn) | -6.27% |
| O=C(NCc1nn(-c2ccccc2)c2c1CCC2)NC1CCC(O)CC1 (stereo not drawn) | -8.01% |
| CC(C)(C)c1cn(C[C@H]2CC3CCN2C[C@@H]3C(=O)N2CCOCC2)nn1 (stereo partly drawn) | 2.28% |
| CC(C)(C)S(=O)(=O)c1ccc(N2CCN(c3ccccc3)CC2)nn1 | -8.92% |
| CNC(=O)c1ccc(C2CCCN(C(=O)c3c(C)noc3C)C2)nc1 (stereo not drawn) | -7.86% |
| CC(C)(C)OCC1CN(CC2CC2)S(=O)(=O)c2cnccc2O1 (stereo not drawn) | -4.79% |
| Cc1ncc(C(=O)N2CCC(N3CCc4ccccc4C3)CC2)c(O)n1 | 2.23% |
| COCc1ncc(-c2nccn2CCS(C)(=O)=O)cn1 | 27.5% |
| Cc1ccc2oc(=O)n(CCC(=O)N3CCN(C)C(=O)C3)c2c1 | -3.44% |
| COc1cccc(-n2c(SCC(=O)O)nnc2-c2cn[nH]c2)c1 | -3.32% |
| Cn1cnc2c1C(COCc1cccnc1)N(Cc1nccs1)CC2 (stereo not drawn) | -1.3% |

| Structure (SMILES) | cytotoxicity at 70.5 h |
| --- | --- |
| O=C(N1CCN(c2ccccc2O)CC1)C1(O)Cc2ccccc2C1 | 0.667% |
| COCc1noc(Cn2ccc3ncccc3c2=O)n1 | -7.25% |
| Cn1cc(CN2CC[C@@H]3[C@@H]2CCN3Cc2ccc3c(c2)OCO3)cn1 | -3% |
| Cc1ccc(C2CCCN(C(=O)c3cnn(C)c3)C2)nc1 (stereo not drawn) | 24.3% |
| Cc1cc(C(=O)N2C[C@@H]3COC[C@]3(CN(C)C)C2)sc1C | -11.8% |
| CN(C)C(=O)CO[C@@H]1CN(Cc2ccccc2F)[C@@H]2CCCO[C@@H]21 | -6.14% |
| CC(C)c1cc(NCC2(N3CCOCC3)CCCCC2)ncn1 | 45.2% |
| Cc1noc([C@H]2C[C@@H]3CCN(C(=O)C4CCOCC4)C[C@H]3O2)n1 | -1.73% |
| Cc1nc(Cn2c3c(ccc2=O)CCN(CC2CC2)CC3)cs1 | -2.72% |
| O=C(NC(CC(F)(F)F)c1ccc(Cl)cc1)c1nc(=O)[nH][nH]1 (stereo not drawn) | 0.759% |
| COCCCN(C)C1CCCN(Cc2noc(C3CC3)n2)C1 (stereo not drawn) | 11.8% |
| Nc1cc2c(nn1)CCN(C(=O)c1cccnc1Oc1ccccc1)C2 | -8.86% |
| Cc1cccc2c(CCNC(=O)[C@H](N)c3ccccc3)c[nH]c12 | -17.6% |
| Cc1occc(=O)c1OCc1noc(C(=O)NC2CCCC2)n1 | -16.2% |
| O=C(NCCN1CCOCC1)c1nc2ccccc2c(=O)[nH]1 | -23.1% |
| CCc1csc(C2CCCN(C(=O)c3ccc(=O)n(CC)n3)C2)n1 (stereo not drawn) | -5.74% |
| CC(=O)N1CCOCC2(CCN(Cc3ccc(C)s3)CC2)C1 | -4.66% |
| CC(=O)c1c(F)cccc1NCC(O)C(C)(C)C (stereo not drawn) | -11.2% |
| O=C(Cc1ccc(F)cc1)NCCNc1cc(N2CCCC2)cnn1 | 30.6% |
| CCc1nc(CN(CC(N)=O)C(C)C)cs1 | 18.1% |
| Cc1[nH]nc(CCC(=O)NCC2CCCN(C3CCCC3)C2)c1C (stereo not drawn) | -5.73% |
| CN(C)C(=O)c1cc(S(=O)(=O)N2CCCC2Cn2ccnc2)cn1C (stereo not drawn) | 2.99% |
| Cc1ccc(C(=O)NCC(C)Cn2ccnc2C)c(=O)[nH]1 (stereo not drawn) | 0.288% |

| Structure (SMILES) | cytotoxicity at 70.5 h |
| --- | --- |
| O=C(CC1C=CCC1)Nc1ncn(CC(=O)N2CCCCCC2)n1 (stereo not drawn) | -13.4% |
| NC(=O)N1CCCC(C(=O)NCc2ccccc2OC(F)(F)F)C1 (stereo not drawn) | -9.4% |
| Cc1csc([C@H]2C[C@@H]3CCN(C(=O)c4ccnnc4)C[C@H]3O2)n1 | -1.58% |
| CN(C)Cc1ccnc(C2CCCN2Cc2ccc3ncccc3c2)n1 (stereo not drawn) | 1.4% |
| COCCN1C(=O)CO[C@H]2CN(Cc3cccc(OC)c3F)C[C@@H]21 | -4.24% |
| CCC(C)C(=O)NCc1ccc(-n2cncn2)nc1 (stereo not drawn) | -6.68% |
| Cn1ccnc1CN1C[C@H]2CN(S(C)(=O)=O)CCN2C1=O | -0.342% |
| O=C(Nc1ccc(F)cc1F)N(CCC(F)(F)F)C[C@H](O)CO | -12.9% |
| CC(C)N(C)Cc1nnn2c1CN(Cc1cccnc1)CCC2 | -101% |
| Cc1ccn(Cc2nc(C(C)OCC(C)C)no2)c(=O)c1 (stereo not drawn) | 3.64% |
| COc1ccccc1C(N)CC(C)C (stereo not drawn) | -8.84% |
| Cc1cnn(CCNCC(=O)NCc2ccccc2)c1 | -12.3% |
| CN(Cc1ccccc1)C(=O)Cn1nc(N2CCOCC2)ccc1=O | 9.2% |
| O=C(CN1CCCNC1=O)N1CCCC(c2nccs2)C1 (stereo not drawn) | -8.65% |
| O=C(c1cccs1)N1CCc2c(nc(N3CCCC3)[nH]c2=O)C1 | -0.974% |
| O=C(CCc1cccnc1)N1CCCC(n2cncn2)C1 (stereo not drawn) | -2.85% |
| CCn1nc(C)c(CNCCn2cc(C)cn2)c1C | -4.46% |
| CCOCC1CCCN(C(=O)NCc2ccc(-c3ccn[nH]3)cc2)C1 (stereo not drawn) | 12.5% |
| CN(Cc1ccncc1)C1COC2(CCN(Cc3ccsc3)CC2)C1 (stereo not drawn) | -15.1% |
| COc1cccc([C@@H]2CN(C(=O)c3ccc(C)cc3O)C[C@H]2C(=O)O)c1 | -5.65% |
| COCC1CCN(c2nc(C(C)(C)C)nc3c2cnn3C)C1 (stereo not drawn) | 15.8% |
| CCOCC(=O)NCc1cc(Br)ccc1OC(F)F | 0.394% |
| COCC(=O)NCCc1nc2cc(-c3ccc(OC)cc3)ncn2n1 | -5.33% |

| Structure (SMILES) | cytotoxicity at 70.5 h |
| --- | --- |
| COc1ccc2c3c1CN(S(C)(=O)=O)CC3=CC(C)(C)CO2 | -6.24% |
| O=C1CCC2(CCN(Cc3ccc(F)cc3)CC2)N1CCN1CCCC1 | -19.9% |
| CC(C)(C)NC(=O)CNc1ncccn1 | -8.78% |
| O=C(C1CCOC1)N1CCN(Cc2ccncc2)c2ncccc2C1 (stereo not drawn) | -9.12% |
| CN1CCc2c1nc1c(c2N)CCC1 | -7.38% |
| OC[C@@H]1CCCN1c1ccc(-c2nc(COc3ccccc3)no2)cn1 | 1.55% |
| COc1ccc(C2=Nn3c(CCN)nnc3-c3ccccc3C2)cc1 | 8.3% |
| Cc1cc(-c2cc(-c3cc(CC(=O)O)cs3)nc(N)c2C#N)oc1C | -12.1% |
| Oc1cc(C2CCCCN2Cc2cccs2)nc(-c2ccncc2)n1 (stereo not drawn) | -11.8% |
| Cc1ccc(=O)n(CC2(O)CCN(Cc3ccsc3)CC2)n1 | -10.6% |
| O=C(Cn1nc(-c2cccs2)ccc1=O)N1CCCCCC1 | -24.9% |
| OC1CCCOC12CCN(c1ncccn1)CC2 (stereo not drawn) | 15.7% |
| Cc1cc(C)nc(N2CCC(NCCSc3nnnn3C)CC2)n1 | 11.2% |
| CCc1nc(C2CCCN2C(=O)CCCn2cncn2)no1 (stereo not drawn) | -8.49% |
| CCc1cc(C(=O)N2CC[C@@H](c3ccc4ccccc4c3)[C@H](O)C2)[nH]n1 | 35% |
| CC(C)(C)c1nccc(N2CCCCC2CCNS(C)(=O)=O)n1 (stereo not drawn) | 2.95% |
| CC(C)c1n[nH]c(C2CN(Cc3nnc(C4CC4)o3)CCO2)n1 (stereo not drawn) | 24.8% |
| Cn1ncc2c(NCCC34CCCN3CCC4)nc(C3CCCC3)nc21 | 5.19% |
| COC1CCN(C(=O)Cn2cccc(C(F)(F)F)c2=O)C1 (stereo not drawn) | -8.78% |
| CCc1nc(C2CCCN2C(=O)c2cc3c(s2)CCC3)no1 (stereo not drawn) | -2.7% |
| CN(Cc1ccsc1)C(=O)c1cc2c([nH]c1=O)CCCC2=O | -12.8% |
| CC(=O)N1Cc2nccn2CC(CNC(=O)c2ccnnc2)C1 (stereo not drawn) | 9.01% |
| COC[C@H]1CCC[C@H]1Nc1ncnc2c1CCNCC2 | -3.38% |

| Structure (SMILES) | cytotoxicity at 70.5 h |
| --- | --- |
| Cc1nccn1-c1ccc(CNS(=O)(=O)N2CCCCC2C)cn1 (stereo not drawn) | -3.35% |
| O=S(=O)(CC1CCCN1S(=O)(=O)C1CC1)c1ccccc1 (stereo not drawn) | -6.46% |
| CCn1ccnc1CN1CCN(Cc2cnc(C)cn2)CC1C (stereo not drawn) | 4.47% |
| Cc1noc(C)c1C(=O)N1CCC2(CC1)CC(Oc1ccccc1)CO2 (stereo not drawn) | -3.84% |
| CO[C@@H]1CCN(Cc2ccc(C)o2)[C@H]1Cc1ccccc1 | -1.2% |
| N#Cc1cccc(OCCN2CCCC2C(=O)N2CCSCC2)c1 (stereo not drawn) | 3.62% |
| Cc1nc2c(cc1C(=O)O)CCN(Cc1ccsc1)CC2 | -6.12% |
| COc1ccc(OCc2cc(C(=O)N3C[C@@H](C)O[C@@H](C)C3)n[nH]2)c(Cl)c1 | -8.42% |
| CCN(CC)C(=O)CCn1ncc2c(Cl)cccc21 | -10.4% |
| CCn1cc(C(=O)N2CCOC(c3nc(-c4cccs4)no3)C2)cn1 (stereo not drawn) | -2.41% |
| Cc1cc(CN2CCCC2Cn2cncn2)no1 (stereo not drawn) | 26.7% |
| Fc1ccc(CNCc2nnc3n2CC(C(F)(F)F)CC3)c(F)c1 (stereo not drawn) | -7.11% |
| NC(=O)NC(CC(=O)NCCc1cccc(F)c1)c1cccs1 (stereo not drawn) | 17% |
| CN(C)CCOc1ccc(N(C)S(=O)(=O)c2cnn(C)c2)cc1 | -1.43% |
| Cc1cc(C)nc(NC(=O)C(C)Oc2ccc3c(c2)OCO3)n1 (stereo not drawn) | -11.4% |
| Cn1c(Cl)cnc1CN1CCCC1c1ccc2c(c1)OCCO2 (stereo not drawn) | 19.4% |
| Fc1ccc(OCCNCCn2cccn2)cc1 | -9.89% |
| Cc1cc(NC(=O)NCC(C)N2CCc3ccccc32)no1 (stereo not drawn) | -5.5% |
| O=C(NCCSC1CCCC1)c1ccc(F)cc1F | -5.35% |
| Cc1nc(C)n(C2CCCN(C(=O)c3cccc4cn[nH]c34)C2)n1 (stereo not drawn) | -13.2% |
| CN(Cc1nnc2n1CCC2)C(=O)c1ccc2c(c1)OCCO2 | 44.2% |
